Measured values taken from paper PMC6389498, “Control of Bacterial Virulence through the Peptide Signature of the Habitat” (Cell Reports, 2019).
Values after ≈ are worked out from the molar mass of the structure shown. Like-named read-outs stand apart in the source and are kept apart here. Residues, ends and D or L forms follow the SMILES beside them.

Assays:
PrfA [1] = target: T1, PrfA (Listeria monocytogenes serovar 1/2a, UniProt P22262); assay: biochemical; format: binding; set-up: His tag (inferred from pET28a vector and nickel-column purification); made in house; host or cells: E. coli BL21; conditions: for Binding to PrfA detected by ITC: ITC with purified PrfA, free L-Leu at 1 mM
[2] = system: PrfA-dependent expression (PrfA-regulated hly promoter, luxABCDE reporter); assay: Phly-lux reporter of PrfA-dependent gene expression, wild-type P14; format: cell-based, Listeria monocytogenes; conditions: for PrfA downregulation (repression of Phly-lux expression): wild-type P14 in regular CDM (0.8 mM Cys), 1 mM peptide vs no-peptide control, 37°C, maximum normalized luminescence, means of three triplicate experiments
Method: (§1) Listeria were routinely grown in porcine BHI (BD-Difco) and Escherichia coli in Luria-Bertani (LB) media, with 1% agar for solid cultures. For adsorbent-treated BHI agar, 1% (w/v) Amberlite XAD4 resin (Sigma-Aldrich) or 0.5% (w/v) activated charcoal powder (Merck) was added to the medium prior to autoclaving. For fluid Amberlite XAD4-treated BHI cultures (BHI-Amb), the resin was aseptically removed after autoclaving to avoid interference with optical density (OD) readings. Chemically defined CDM is a modification of the improved minimal medium (IMM) of [Phan-Thanh and Gormon (1997)], with the following composition: 6.56 g/L […], 30.96 g/L NaHPO4 7H2O, 0.41 g/L MgSO4, 88 mg/L ferric citrate, 0.1 g/L each of the (L-) amino acids leucine, isoleucine, valine, methionine, arginine, cysteine, histidine and tryptophan, 0.6 g/L L-glutamine, 2.5 mg/L adenine, 0.5 mg/L biotin, 5 mg/L riboflavin, 1 mg/L each of thiamine, pyridoxal, para-aminobenzoic acid, calcium panthothenate and nicotinamide, 5 μg/L thioctic acid and 4.5 g/L glucose. CDM was used freshly prepared from filter-sterilized stock solutions stored at 4°C (except cysteine, glutamine, biotin and ferric citrate solutions, kept at –20°C; and phosphates, MgSO4 and glucose, at room temperature). Antibiotic supplements (μg/mL) were as follows (lower values for Listeria, others for E. coli or both): erythromycin 5 or 250, chloramphenicol 7.5 or 20, spectinomycin 100, carbenicillin 100. All incubations were carried out at 37°C, with 180 rpm orbital shaking for fluid cultures, unless stated otherwise. GSH was kept in reduced state with 2 mM Tris[2-carboxyethyl]phosphine hydrochloride (TCEP) in the stock solution. Chemicals and oligonucleotides were from Sigma-Aldrich unless otherwise indicated.
(§2) PrfA-dependent gene expression was quantitatively analyzed throughout the L. monocytogenes growth curve using a chromosomally integrated luxABCDE operon under the control of the PrfA-regulated hly promoter ([Bron et al., 2006]). Overnight bacterial cultures were washed, resuspended in PBS and used to inoculate fresh medium to an initial OD at 600 nm (OD600) ≈0.02-0.05. Triplicate 200-μl aliquots were transferred to opaque 96-well plates with clear bottom (ThermoScientific) and OD600 and luminescence readings taken every 30 min during incubation in an automated microplate reader (FLUOstar Omega, BMG Labtech). Bioluminescence values were normalized to growth at each time point. RT-qPCR transcription analysis was performed on total RNA samples extracted from mid-exponential L. monocytogenes cultures (OD600 ≈0.2-0.3 for BHI media) using RNeasy mini kit (QIAGEN) as previously described ([Deshayes et al., 2012]). The number of transcripts was calculated by interpolation of threshold cycle (CT) values of cDNA amplifications in a standard regression curve generated from samples of known DNA concentration. Expession data were normalized by dividing the number of transcripts of the test gene by the geometric mean of the number of transcripts of the reference housekeeping genes rpoB and ldh ([Deshayes et al., 2012]). See Table S3 for oligonucleotides used.

PrfA [3] = target: T1, PrfA; format: binding; set-up: His tag (inferred from pET28a vector and nickel-column purification); made in house; host or cells: E. coli BL21
[4] = target: T2, PrfA^WT binding to the PplcA/hly PrfA box (Listeria monocytogenes serovar 1/2a, UniProt P22262); assay: Biolayer interferometry of PrfA-DNA binding, PrfAWT; format: biochemical; conditions: BLI, PrfA^WT-ligand mixes at 1:100 molar ratio, 50 mM Tris-Cl pH 7.5, 300 mM NaCl, 0.05 Tween 20; at least two experiments
T2 construct: His tag (inferred from pET28a vector and nickel-column purification); made in house; host or cells: E. coli BL21
Method: Bacterial pellets of IPTG-induced cultures of E. coli BL21(pET28aprfA^WT) ([Deshayes et al., 2012]; Table S2) were resuspended in lysis buffer (50 mM Tris pH 7.5, 300 mM NaCl, 20 mM imidazole) and lysed with an EmulsiFlex homogenizer. After affinity chromatography on a HiTrap HP nickel column in an AKTA system (GE Healthcare), PrfA-containing fractions were pooled together, loaded on a HiTrap Heparin HP column and then on a Superdex 75 Gel Filtration column to remove nucleic acid and protein contaminants. The buffer used for the gel filtration and storage was 50 mM Tris pH 7.5, 300 mM NaCl. Fluorescence-based thermal shift assays were performed in a real-time PCR instrument (Bio-Rad) using 25 μL triplicate samples containing 10 μΜ recombinant PrfA, 5 × SyprOrange (Invitrogen) and 1 mM synthetic peptide. Isothermal Titration Calorimetry (ITC) experiments were performed in a GE MicroCal iTC200 system (GE Healthcare). PrfA was changed to 50 mM Tris pH 7.5, 500 mM NaCl buffer and 100 μΜ of PrfA protein injected into the cell. […] Data were analyzed with the inbuilt software of the ITC apparatus using a one-site model. The specific DNA-binding activity of PrfA was measured by biolayer interferometry (BLI) with a FortéBio Octet^RED 96 apparatus using a biotinylated double-stranded oligonucleotide containing the PplcA/hly PrfA box (Table S3). […]

[5] = system: PrfA-dependent expression (PrfA-regulated hly promoter, luxABCDE reporter); assay: Phly-lux reporter of PrfA-dependent gene expression, opp (oppF::Tn) or ΔgshF mutant; format: cell-based, Listeria monocytogenes; conditions: for Rescue of PrfA phenotype of opp mutant: opp mutant in BHI-Amb, GSH 1 mM, L-cysteine at the CDM concentration
Method: as §1
as §2, with “RT-qPCR transcription analysis was performed on total RNA samples extracted from mid-exponential L. monocytogenes cultures (OD600 ≈0.2-0.3 for BHI media) using RNeasy mini kit (QIAGEN) as previously described ([Deshayes et al., 2012]).” left out, “Expession data were normalized by dividing the number of transcripts of the test gene by the geometric mean of the number of transcripts of the reference housekeeping genes rpoB and ldh ([Deshayes et al., 2012]). See Table S3 for oligonucleotides used.” left out

L. monocytogenes P14 [6] = format: cell-based, Listeria monocytogenes
PrfA [7] = target: T1, PrfA; conditions: read-out: Kd for PrfA; ref Reniere et al., 2015; cited from earlier work
L. monocytogenes P14 [8] = assay: Fosfomycin MIC; format: cell-based; conditions: Listeria monocytogenes

T1 sequence (P22262 whole entry): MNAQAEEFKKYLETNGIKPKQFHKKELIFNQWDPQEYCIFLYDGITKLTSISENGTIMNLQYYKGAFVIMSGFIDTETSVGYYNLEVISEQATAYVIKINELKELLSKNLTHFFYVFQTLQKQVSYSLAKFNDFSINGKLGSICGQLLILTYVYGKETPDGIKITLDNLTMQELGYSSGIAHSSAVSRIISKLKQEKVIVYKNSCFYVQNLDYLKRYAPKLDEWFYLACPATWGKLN
T2 sequence (P22262 whole entry): as above

Compound `CC(C)C[C@H](NC(=O)[C@@H](N)CC(C)C)C(=O)O` [LL, L-leucylleucine] has a Kd (PrfA [1]) of roughly 25 µM.
With KLLLLK [known listerial Opp substrate] the “PrfA downregulation (repression of Phly-lux expression)” value (shortened to “PrfA downregulation”) [2] was 96%.
In the case of “ASSLLLVG [listerial derived octapeptide, putative peptide pheromone pPplA]”, the “PrfA downregulation” value [2] is reported as 88% and the “Change in melting temperature (Tm) of purified PrfA” value (PrfA [3]) is reported as “significant drop in the Tm”.
With `CC(C)C[C@H](N)C(=O)O` [free Leu, leucine] the “PrfA downregulation” value [2] was “not inhibitory”, the “Inhibition of PrfA-DNA binding” value [4] was “not” and the “Binding to PrfA detected by ITC” value (PrfA [1]) was “no binding was detected”.
For `N[C@@H](CS)C(=O)O` [Cys, L-cysteine], the “Amount required to completely cancel LL/LLL-mediated repression” value ([2]; wild-type in CDM with limiting Cys (0.1 mM), against fixed 0.25 mM Leu peptide) was 6.4 mM, the “Rescue of PrfA phenotype of opp mutant” value [5] was “Rescue of opp mutant” and the “Minimum concentration for eugonic growth” value (L. monocytogenes P14 [6]; CDM, wild-type and opp bacteria) was “≈ 0.2 mM”. For the same compound, the “Concentrations that inhibit P14 growth” value (L. monocytogenes P14 [6]; Cys-deplete CDM supplemented with increasing free Cys) was no less than 12.8 mM.
With RKDVY [known listerial Opp substrate] the “PrfA downregulation” value [2] was “no effect”.
For `N[C@@H](CCC(=O)N[C@@H](CS)C(=O)NCC(=O)O)C(=O)O` [GSH, γ-L-Glutamyl-L-cysteinylglycine], the “Rescue of PrfA phenotype of opp mutant” value [5] is given as “fully restored the parental PrfA^+ phenotype”, the “Reversal of PrfA– phenotype of ΔgshF mutant” value ([5]; ΔgshF in BHI-Amb, 1 mM exogenous GSH (even at 8 mM, data not shown)) is given as “did not revert the PrfA^– phenotype” and the Kd (PrfA [7]) is given as roughly 4 mM. The “Binding to PrfA detected by ITC” value (PrfA [1]) was “undetectable by ITC”.
`CC(C)C[C@H](NC(=O)[C@H](CC(C)C)NC(=O)[C@@H](N)CC(C)C)C(=O)O` [LLL] (H-Leu-Leu-Leu-OH) gave a Kd (PrfA [1]) of roughly 25 µM.
With “SQNPYPIV [known listerial Opp substrate]” the “PrfA downregulation” value [2] was 59%.
In the case of “RGDC [Cys-containing synthetic tetrapeptide transported by Opp]”, the “Concentration that completely cancelled LL/LLL-mediated repression” value ([2]; wild-type in CDM with limiting Cys (0.1 mM), against fixed 0.25 mM LL or LLL) is reported as 80 µM, the “Growth and PrfA-dependent expression with peptide as Cys source” value ([2]; wild-type, CDM without Cys supplemented with 0.32 mM RGDC peptide) is reported as “promoted growth and PrfA-dependent expression” and the “Growth and PrfA-dependent expression with peptide as Cys source” value ([5]; opp mutant, CDM without Cys supplemented with 0.32 mM RGDC peptide) is reported as “not”.
With `C[C@@H]1O[C@@H]1P(=O)(O)O` [fosfomycin] the MIC (L. monocytogenes P14 [8]) was 12 to 32 µg/mL (≈ 86.9 to 232 µM).
